Measurements as given in patent publication US11654140B2, “Treatment of ocular inflammatory diseases using laquinimod” (Active Biotech AB, priority 2012, dated 2023).

Key:
[1] = system: ovalbumin-induced allergic conjunctivitis (late phase reaction) in mice; test: Ocular active anaphylaxis (late phase) in mice, ovalbumin model, eosinophil infiltration into conjunctiva (Example 2); type: in vivo; details: for Eosinophil density, mean / Inhibition of Eosinophil Infiltration vs. Vehicle: 10 μl topical right eye four times daily Day 8-17, five times Day 18; for Eosinophil density, mean: conjunctiva Day 19
Experimental: Laquinimod solutions were prepared as in Example 1.
Forty (40) Balb/c albino mice were randomly allocated to five groups of eight animals each. Only the right eyes of each animal were used in this study.
On Days 1 and 8, animals in groups 2-5 were injected once intraperitoneally with 0.2 ml of a mixture comprising 5 μg/ml ovalbumin and 15 mg/ml alum in phosphate buffered saline (PBS; pH 7.3-7.4). Animals of group 1 received a mock sensitization comprising 0.2 ml intraperitoneal injection of PBS only on Days 1 and 8.
Laquinimod or controls were delivered into the right conjunctival sac as follows: • From Day 8 to Day 17, animals were dosed four times daily with 10 μl of either 1% laquinimod, 5% laquinimod, or vehicle. Reference Group 5 was dosed with the same regimen, but starting on Day 15. (**Note: Due to a technical error, four mice from Group 1 (negative vehicle) were not dosed on Day 8 and one mouse from Group 1 (negative vehicle) was not dosed on Day 11. This was deemed not to be a critical error that would affect the outcome of the study so the study was continued). • On Day 18, animals were dosed five times during a three hour period before the second challenge (3 h, 2 h, 1 h, 40 min., and 10 min.).
Allergic conjunctivitis was achieved by a single administration on Day 15 (30 minutes before the treatment regimen) and Day 18 (2 hours after 40 minute treatment) with 10 μl of 5 mg/ml ovalbumin in PBS, pH 7.3-7.4 to the right eyes of all […] in groups 2 through 5. Group 1 was mock challenged with 10 μl PBS only.
On Day 19 (12 h to 24 h after challenge), […] were euthanized using an intraperitoneal injection of pentobarbital. Right eyelids and eyeballs were immediately fixed in Bouin-Hollande solution for 24 hours and embedded in paraffin wax. Fixed samples were cut vertically into 5 to 7 micrometer thick sections with a microtome in two different regions—the bulbar conjunctiva and the fornix and palpebral conjunctiva. Three sections per region were selected for analysis based on the quality of the sectioning. The selected sections were stained with May-Grunwald/acid Giemsa.
After staining, digital images using 200× magnifications were taken with a Leica light microscope. Total area of subconjunctival tissue was measured automatically using the Leica Application Suite (LAS) software. Eosinophils were counted throughout the whole conjunctiva in each of the three sections per sample. The density per square millimeter of eosinophils stained with acid Giemsa was calculated for each specimen. The average cell density per eye was calculated from the results of the […] sections.

[2] = system: subject suffering from viral conjunctivitis; test: Laquinimod for treating viral conjunctivitis (Example 6); type: in vivo; details: laquinimod composition, once daily
Experimental: (§1) In the examples 4-9 below, the administration of the composition is once daily. The administration can be repeated daily for a period of one, two, three or four days, up to 14 days, or longer as necessary.
(§2) A laquinimod composition as described herein is administered to a subject suffering from viral conjunctivitis. The administration of the composition is effective to treat the subject suffering from viral conjunctivitis. The administration of the composition is also effective to reduce intraocular inflammation in the subject.

[3] = system: S-antigen-induced experimental autoimmune uveitis (EAU) in rats; test: EAU model in rats, histological ocular evaluation (Example 1); type: in vivo, rat; details: Day 16; for Histological ocular evaluation of both eyes, mean histologic grade: 10 μl once daily both eyes from Day 7, scale 0-7
Experimental: A 1% (10 mg/ml) and a 5% (50 mg/ml) solution of laquinimod sodium were prepared in sterile water. Dissolution of laquinimod powder was achieved by shaking, stirring, or low-speed vortex. The solutions were stored for up to 2 weeks at 2-8° C. and up to 24 hours at room temperature. Laquinimod solutions were prepared under light protection and were protected from light for the duration of the experiment. […] One 100 mg/4 ml in olive oil dose was prepared every 2 days and stored at room temperature.
Thirty two female albino Lewis rats were randomly divided into four (4) groups of eight (8) rats. Ocular inflammation was induced at Day 1 by injection of 100 μl of human S-antigen (100 μg) in Freud's complete adjuvant (4 mg/ml) into the footpad of each rat, and an intraperitoneal injection of 1 μg/100 μl pertussis toxin.
Beginning on Day 7 until the end of the study, each animal group was treated with a test solution in both eyes as shown in Table 1:
Immediately after euthanasia (i.e., at Day 16), both eyeballs of all rats of each group were enucleated and prepared for histological examination. They were fixed in Bouin-Hollande solution, dehydrated, and embedded in paraffin wax. They were then cut into eight sections, approximate five to seven micrometers thick and stained with Trichome of Masson.

[4] = system: S-antigen-induced uveitis in albino rats; test: Ocular vs oral laquinimod in S-antigen-induced uveitis in albino rats, clinical score (Example 10); type: in vivo, rat; details: once daily, 7 days
[5] = system: subject suffering from an OID; test: Laquinimod for treating OID (Example 9); type: in vivo; details: laquinimod composition, once daily
Experimental: as §1
A laquinimod composition as described herein is administered to a subject suffering from an OID. The administration of the composition is effective to treat the subject suffering from the OID. The administration of the composition is also effective to reduce intraocular inflammation in the subject.

[6] = system: subject suffering from bacterial conjunctivitis; test: Laquinimod for treating bacterial conjunctivitis (Example 5); type: in vivo; details: laquinimod composition, once daily
Experimental: as §1
as §2, with “bacterial” for “viral”

## CCN(C(=O)c1c(O)c2c(Cl)cccc2n(C)c1=O)c1ccccc1 [Laquinimod, laquinimod]
[1]; 1% Laquinimod
  Eosinophil density, mean: 117.5 cells/mm2
[1]; 1% Laquinimod, not statistically significant
  Inhibition of Eosinophil Infiltration vs. Vehicle: 48%
[1]; 1% Laquinimod, not statistically significant, listed as laquinimod
  Inhibition of Eosinophil Infiltration vs. Vehicle: 48%
[1]; 5% Laquinimod
  Eosinophil density, mean: 72.5 cells/mm2
[1]; 5% Laquinimod, p 0.0023
  Inhibition of Eosinophil Infiltration vs. Vehicle: 68%
[1]; 5% Laquinimod, p 0.0023, listed as laquinimod
  Inhibition of Eosinophil Infiltration vs. Vehicle: 68%
[1]; multiple topical administrations, statistically significant effect at a dose of 5%
  late ocular anaphylaxis reaction: inhibited the late ocular anaphylaxis reaction
[2]
  treat the subject suffering from viral conjunctivitis: effective
[2]; viral conjunctivitis
  reduce intraocular inflammation in the subject: effective
[3]; 1% Laquinimod
  Histological ocular evaluation of both eyes, mean histologic grade: 1.2
[3]; 1% Laquinimod, listed as laquinimod
  Histological ocular evaluation of both eyes, mean histologic grade: 1.2±2.2
[3]; 1% laquinimod once per day
  eyes showing significant destruction of the retina associated with infiltration of inflammatory cells: four eyes out of sixteen
[3]; 5% Laquinimod
  Histological ocular evaluation of both eyes, mean histologic grade: 0.7
[3]; 5% Laquinimod, listed as laquinimod
  Histological ocular evaluation of both eyes, mean histologic grade: 0.7±1.9
[3]; 5% laquinimod once per day
  eyes showing destruction of the retina associated with infiltration of inflammatory cells: two eyes (from two different animals) out of sixteen
[4]; 1% PO
  % Inhibition of clinical score on Day 16: 24%
[4]; 1% eye drops
  % Inhibition of clinical score on Day 16: −75%
[4]; 5% PO
  % Inhibition of clinical score on Day 16: 39%
[4]; 5% eye drops
  % Inhibition of clinical score on Day 16: 31%
[5]
  treat the subject suffering from the OID: effective
[5]; OID
  reduce intraocular inflammation in the subject: effective
[6]
  treat the subject suffering from bacterial conjunctivitis: effective
[6]; bacterial conjunctivitis
  reduce intraocular inflammation in the subject: effective
